Test results: PubChem BioAssay (NCI)
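Compound exposure: 48 hours, 5 concentrations, 96-well plates. Definition used: TGI = concentration required for complete inhibition of growth.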

Key:
Test in all cases: NCI-60 cell line screen, 48 h
A498 renal = tested on: A498 renal
A549 NSCLC = tested on: A549 NSCLC
ACHN renal = tested on: ACHN renal
BT-549 breast = tested on: BT-549 breast
CAKI-1 renal = tested on: CAKI-1 renal
COLO 205 colon = tested on: COLO 205 colon
DU-145 prostate = tested on: DU-145 prostate
EKVX NSCLC = tested on: EKVX NSCLC
HCC-2998 colon = tested on: HCC-2998 colon
HCT-116 colon = tested on: HCT-116 colon
HCT-15 colon = tested on: HCT-15 colon
HOP-62 NSCLC = tested on: HOP-62 NSCLC
HOP-92 NSCLC = tested on: HOP-92 NSCLC
HS 578T breast = tested on: HS 578T breast
HT29 colon = tested on: HT29 colon
IGROV1 ovarian = tested on: IGROV1 ovarian
K-562 leukemia = tested on: K-562 leukemia
KM12 colon = tested on: KM12 colon
LOX IMVI melanoma = tested on: LOX IMVI melanoma
M14 melanoma = tested on: M14 melanoma
MALME-3M melanoma = tested on: MALME-3M melanoma
MCF7 breast = tested on: MCF7 breast
MDA-MB-231 breast = tested on: MDA-MB-231 breast
MDA-MB-435 = tested on: MDA-MB-435
MDA-N = tested on: MDA-N
NCI-H226 lung = tested on: NCI-H226 lung
NCI-H23 lung = tested on: NCI-H23 lung
NCI/ADR-RES ovarian = tested on: NCI/ADR-RES ovarian
OVCAR-3 ovarian = tested on: OVCAR-3 ovarian
OVCAR-4 ovarian = tested on: OVCAR-4 ovarian
OVCAR-5 ovarian = tested on: OVCAR-5 ovarian
OVCAR-8 ovarian = tested on: OVCAR-8 ovarian
PC-3 prostate = tested on: PC-3 prostate
RPMI-8226 leukemia = tested on: RPMI-8226 leukemia
RXF 393 renal = tested on: RXF 393 renal
SF-295 CNS = tested on: SF-295 CNS
SF-539 CNS = tested on: SF-539 CNS
SK-MEL-2 melanoma = tested on: SK-MEL-2 melanoma
SK-MEL-28 melanoma = tested on: SK-MEL-28 melanoma
SK-MEL-5 melanoma = tested on: SK-MEL-5 melanoma
SK-OV-3 ovarian = tested on: SK-OV-3 ovarian
SN12C renal = tested on: SN12C renal
SR leukemia = tested on: SR leukemia
SW-620 colon = tested on: SW-620 colon
T-47D breast = tested on: T-47D breast
TK-10 renal = tested on: TK-10 renal
UACC-257 melanoma = tested on: UACC-257 melanoma
UACC-62 melanoma = tested on: UACC-62 melanoma
UO-31 renal = tested on: UO-31 renal

CC1OC2=N[C@@H]1C(=O)N[C@@H](Cc1ccccc1)C1=N[C@H](C(=O)N[C@@H](Cc3ccccc3)C3=N[C@H](C(=O)N[C@H]2Cc2ccccc2)C(C)O3)C(C)O1 (some centres undefined)
TGI (A498 renal): 91.9 µM | TGI (A549 NSCLC): > 100 µM | TGI (ACHN renal): > 100 µM | TGI (BT-549 breast): > 100 µM | TGI (CAKI-1 renal): 88.6 µM | TGI (COLO 205 colon): 34.4 µM | TGI (DU-145 prostate): > 100 µM | TGI (EKVX NSCLC): > 100 µM | TGI (HCC-2998 colon): > 100 µM | TGI (HCT-116 colon): > 100 µM | TGI (HCT-15 colon): > 100 µM | TGI (HOP-62 NSCLC): > 100 µM | TGI (HOP-92 NSCLC): 59.7 µM | TGI (HS 578T breast): 65.8 µM | TGI (HT29 colon): 52.5 µM | TGI (IGROV1 ovarian): > 100 µM | TGI (K-562 leukemia): 68.7 µM | TGI (KM12 colon): > 100 µM | TGI (LOX IMVI melanoma): 39.4 µM | TGI (M14 melanoma): 56.4 µM | TGI (MALME-3M melanoma): 57.6 µM | TGI (MCF7 breast): > 100 µM | TGI (MDA-MB-231 breast): 72 µM | TGI (MDA-MB-435): 81.7 µM | TGI (MDA-N): > 100 µM | TGI (NCI-H226 lung): 93.9 µM | TGI (NCI-H23 lung): > 100 µM | TGI (NCI/ADR-RES ovarian): > 100 µM | TGI (OVCAR-3 ovarian): 75.8 µM | TGI (OVCAR-4 ovarian): > 100 µM | TGI (OVCAR-5 ovarian): 68.5 µM | TGI (OVCAR-8 ovarian): > 100 µM | TGI (PC-3 prostate): 73.2 µM | TGI (RPMI-8226 leukemia): 34.1 µM | TGI (RXF 393 renal): > 100 µM | TGI (SF-295 CNS): > 100 µM | TGI (SF-539 CNS): 47.4 µM | TGI (SK-MEL-2 melanoma): 52.3 µM | TGI (SK-MEL-28 melanoma): 69.2 µM | TGI (SK-MEL-5 melanoma): 57.8 µM | TGI (SK-OV-3 ovarian): > 100 µM | TGI (SN12C renal): > 100 µM | TGI (SR leukemia): 62.6 µM | TGI (SW-620 colon): > 100 µM | TGI (T-47D breast): > 100 µM | TGI (TK-10 renal): 69.5 µM | TGI (UACC-257 melanoma): 71.2 µM | TGI (UACC-62 melanoma): 80.1 µM | TGI (UO-31 renal): > 100 µM
